10 compounds from PMC12136037, “Type II kinase inhibitors that target Parkinson’s disease–associated LRRK2” (Science Advances, 2025) can be followed below.

Assay in all cases: DSF 100 kinase selectivity screen;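 also: compound tested at 20 µM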
What all share (type): binding

For assay [1], the target named is T1, ~100 representative kinases (Homo sapiens, UniProt Q96PY6).
T1 construct: Recombinant protein kinase domains with a concentration of 2 μM
T1 sequence (Q96PY6 1-1258): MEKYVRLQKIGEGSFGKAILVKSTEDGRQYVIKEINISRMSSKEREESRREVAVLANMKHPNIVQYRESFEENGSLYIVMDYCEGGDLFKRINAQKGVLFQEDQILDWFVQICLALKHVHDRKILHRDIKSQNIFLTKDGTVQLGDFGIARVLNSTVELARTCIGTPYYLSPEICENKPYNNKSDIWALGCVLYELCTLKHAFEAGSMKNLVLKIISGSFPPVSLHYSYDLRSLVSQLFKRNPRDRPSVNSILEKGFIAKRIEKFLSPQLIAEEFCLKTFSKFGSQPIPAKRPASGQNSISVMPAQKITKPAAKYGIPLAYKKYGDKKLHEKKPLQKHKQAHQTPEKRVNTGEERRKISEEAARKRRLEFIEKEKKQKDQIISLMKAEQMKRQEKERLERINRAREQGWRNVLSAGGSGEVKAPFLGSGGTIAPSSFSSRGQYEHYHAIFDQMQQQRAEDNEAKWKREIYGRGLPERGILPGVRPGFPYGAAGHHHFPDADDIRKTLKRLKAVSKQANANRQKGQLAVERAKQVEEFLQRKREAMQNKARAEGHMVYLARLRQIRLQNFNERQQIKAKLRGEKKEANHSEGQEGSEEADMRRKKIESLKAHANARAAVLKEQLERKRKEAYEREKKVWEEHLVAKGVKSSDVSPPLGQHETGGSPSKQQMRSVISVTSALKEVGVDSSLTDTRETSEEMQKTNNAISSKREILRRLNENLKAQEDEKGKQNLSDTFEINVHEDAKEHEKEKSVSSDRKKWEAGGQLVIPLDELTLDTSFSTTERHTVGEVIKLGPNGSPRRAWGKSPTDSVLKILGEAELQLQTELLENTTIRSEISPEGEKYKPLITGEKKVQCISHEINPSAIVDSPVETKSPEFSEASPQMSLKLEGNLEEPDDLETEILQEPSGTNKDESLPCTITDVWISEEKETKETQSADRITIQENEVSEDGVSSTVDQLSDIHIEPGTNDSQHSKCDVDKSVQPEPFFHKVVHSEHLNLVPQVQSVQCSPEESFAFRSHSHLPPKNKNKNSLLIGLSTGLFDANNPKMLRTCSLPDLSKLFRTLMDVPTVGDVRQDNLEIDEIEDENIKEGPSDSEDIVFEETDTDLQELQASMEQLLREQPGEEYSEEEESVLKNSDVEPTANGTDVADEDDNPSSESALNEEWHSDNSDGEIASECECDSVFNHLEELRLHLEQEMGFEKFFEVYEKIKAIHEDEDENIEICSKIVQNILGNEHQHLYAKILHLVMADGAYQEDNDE
The conditions noted are these: protein NEK1; average of three replicates. A digest of the protocol: (§1)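 Each kinase domain, at 2 μM, is mixed with 20 μM test compound and SYPRO Orange in Hepes (20 mM, pH 7.5) with 500 mM NaCl. Temperature is then raised at 3°C/min and fluorescence-monitored unfolding yields the melting temperature change, ΔTm in degrees Celsius.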

For assay [2], the target named is T2, ~100 representative kinases (Homo sapiens, UniProt Q13153).
T2 construct: Recombinant protein kinase domains with a concentration of 2 μM
The settings on record: protein PAK1; average of three replicates. In outline: as §1

For assay [3], the target named is T3, ~100 representative kinases (Homo sapiens, UniProt Q13188).
T3 construct: Recombinant protein kinase domains with a concentration of 2 μM
T3 sequence (Q13188 1-491): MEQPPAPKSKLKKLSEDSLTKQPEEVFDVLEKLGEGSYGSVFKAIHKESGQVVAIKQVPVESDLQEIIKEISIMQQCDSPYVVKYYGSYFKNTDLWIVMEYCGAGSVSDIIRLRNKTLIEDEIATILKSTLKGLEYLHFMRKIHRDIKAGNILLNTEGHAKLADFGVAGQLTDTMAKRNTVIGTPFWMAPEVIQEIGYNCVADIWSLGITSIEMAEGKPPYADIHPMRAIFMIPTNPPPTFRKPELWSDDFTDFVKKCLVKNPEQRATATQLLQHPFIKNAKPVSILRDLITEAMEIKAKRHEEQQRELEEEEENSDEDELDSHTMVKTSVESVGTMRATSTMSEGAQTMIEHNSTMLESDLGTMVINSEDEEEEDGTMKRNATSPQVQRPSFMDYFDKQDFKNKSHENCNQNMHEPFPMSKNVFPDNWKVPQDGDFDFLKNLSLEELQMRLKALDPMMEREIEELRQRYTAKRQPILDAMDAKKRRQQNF
The conditions noted are these: Protein STK3; DSF; average of three replicates. A digest of the protocol: as §1

The target in assay [4] is T4, ~100 representative kinases (Homo sapiens, UniProt O15264).
T4 construct: Recombinant protein kinase domains with a concentration of 2 μM
T4 sequence (O15264 1-365): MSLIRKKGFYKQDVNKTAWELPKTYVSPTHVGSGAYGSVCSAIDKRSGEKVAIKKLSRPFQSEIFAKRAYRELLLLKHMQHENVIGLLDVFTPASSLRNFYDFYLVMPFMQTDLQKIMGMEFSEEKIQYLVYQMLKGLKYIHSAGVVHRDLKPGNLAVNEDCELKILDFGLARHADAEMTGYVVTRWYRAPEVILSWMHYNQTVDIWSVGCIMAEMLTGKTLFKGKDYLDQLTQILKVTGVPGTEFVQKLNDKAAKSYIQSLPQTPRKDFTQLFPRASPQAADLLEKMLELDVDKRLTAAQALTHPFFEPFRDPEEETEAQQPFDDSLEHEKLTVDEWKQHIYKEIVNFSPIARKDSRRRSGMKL
The conditions noted are these: protein MAPK13; average of three replicates. In outline: as §1

Assay [5] deals with T5, ~100 representative kinases (Homo sapiens, UniProt Q8IU85).
T5 construct: Recombinant protein kinase domains with a concentration of 2 μM
The settings on record: Protein CAMK1D; average of three replicates. In outline: as §1

In assay [6] the target is T6, ~100 representative kinases (Homo sapiens, UniProt Q16539).
T6 construct: Recombinant protein kinase domains with a concentration of 2 μM
The conditions noted are these: protein MAPK14; average of three replicates. In outline: as §1

The target in assay [7] is T7, ~100 representative kinases (Homo sapiens, UniProt Q9H4A3).
T7 construct: Recombinant protein kinase domains with a concentration of 2 μM
The conditions noted are these: Protein WNK1; DSF; average of three replicates. A digest of the protocol: as §1

Assay [8] deals with T8, ~100 representative kinases (Homo sapiens, UniProt P45983).
T8 construct: Recombinant protein kinase domains with a concentration of 2 μM
The conditions noted are these: protein MAPK8; average of three replicates. In outline:
as §1

The target in assay [9] is T9, ~100 representative kinases (Homo sapiens, UniProt Q9P289).
T9 construct: Recombinant protein kinase domains with a concentration of 2 μM
The settings on record: protein MST4; average of three replicates. A digest of the protocol: as §1

For assay [10], the target named is T10, ~100 representative kinases (Homo sapiens, UniProt Q9UEW8).
T10 construct: Recombinant protein kinase domains with a concentration of 2 μM
The settings on record: Protein STK39; DSF; average of three replicates. A digest of the protocol: as §1

T6 sequence (Q16539 whole entry, the tested form may be a part): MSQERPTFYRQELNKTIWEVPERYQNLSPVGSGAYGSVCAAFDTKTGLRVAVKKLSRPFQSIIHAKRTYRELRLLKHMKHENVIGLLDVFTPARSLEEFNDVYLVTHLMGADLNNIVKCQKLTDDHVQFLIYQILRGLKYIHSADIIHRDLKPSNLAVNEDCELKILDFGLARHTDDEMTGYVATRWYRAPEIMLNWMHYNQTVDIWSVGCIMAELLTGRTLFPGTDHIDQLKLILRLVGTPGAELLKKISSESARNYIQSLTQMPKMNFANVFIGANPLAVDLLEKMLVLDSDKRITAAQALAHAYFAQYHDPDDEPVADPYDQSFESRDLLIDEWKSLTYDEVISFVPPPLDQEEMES
T7 sequence (Q9H4A3 whole entry, the tested form may be a part): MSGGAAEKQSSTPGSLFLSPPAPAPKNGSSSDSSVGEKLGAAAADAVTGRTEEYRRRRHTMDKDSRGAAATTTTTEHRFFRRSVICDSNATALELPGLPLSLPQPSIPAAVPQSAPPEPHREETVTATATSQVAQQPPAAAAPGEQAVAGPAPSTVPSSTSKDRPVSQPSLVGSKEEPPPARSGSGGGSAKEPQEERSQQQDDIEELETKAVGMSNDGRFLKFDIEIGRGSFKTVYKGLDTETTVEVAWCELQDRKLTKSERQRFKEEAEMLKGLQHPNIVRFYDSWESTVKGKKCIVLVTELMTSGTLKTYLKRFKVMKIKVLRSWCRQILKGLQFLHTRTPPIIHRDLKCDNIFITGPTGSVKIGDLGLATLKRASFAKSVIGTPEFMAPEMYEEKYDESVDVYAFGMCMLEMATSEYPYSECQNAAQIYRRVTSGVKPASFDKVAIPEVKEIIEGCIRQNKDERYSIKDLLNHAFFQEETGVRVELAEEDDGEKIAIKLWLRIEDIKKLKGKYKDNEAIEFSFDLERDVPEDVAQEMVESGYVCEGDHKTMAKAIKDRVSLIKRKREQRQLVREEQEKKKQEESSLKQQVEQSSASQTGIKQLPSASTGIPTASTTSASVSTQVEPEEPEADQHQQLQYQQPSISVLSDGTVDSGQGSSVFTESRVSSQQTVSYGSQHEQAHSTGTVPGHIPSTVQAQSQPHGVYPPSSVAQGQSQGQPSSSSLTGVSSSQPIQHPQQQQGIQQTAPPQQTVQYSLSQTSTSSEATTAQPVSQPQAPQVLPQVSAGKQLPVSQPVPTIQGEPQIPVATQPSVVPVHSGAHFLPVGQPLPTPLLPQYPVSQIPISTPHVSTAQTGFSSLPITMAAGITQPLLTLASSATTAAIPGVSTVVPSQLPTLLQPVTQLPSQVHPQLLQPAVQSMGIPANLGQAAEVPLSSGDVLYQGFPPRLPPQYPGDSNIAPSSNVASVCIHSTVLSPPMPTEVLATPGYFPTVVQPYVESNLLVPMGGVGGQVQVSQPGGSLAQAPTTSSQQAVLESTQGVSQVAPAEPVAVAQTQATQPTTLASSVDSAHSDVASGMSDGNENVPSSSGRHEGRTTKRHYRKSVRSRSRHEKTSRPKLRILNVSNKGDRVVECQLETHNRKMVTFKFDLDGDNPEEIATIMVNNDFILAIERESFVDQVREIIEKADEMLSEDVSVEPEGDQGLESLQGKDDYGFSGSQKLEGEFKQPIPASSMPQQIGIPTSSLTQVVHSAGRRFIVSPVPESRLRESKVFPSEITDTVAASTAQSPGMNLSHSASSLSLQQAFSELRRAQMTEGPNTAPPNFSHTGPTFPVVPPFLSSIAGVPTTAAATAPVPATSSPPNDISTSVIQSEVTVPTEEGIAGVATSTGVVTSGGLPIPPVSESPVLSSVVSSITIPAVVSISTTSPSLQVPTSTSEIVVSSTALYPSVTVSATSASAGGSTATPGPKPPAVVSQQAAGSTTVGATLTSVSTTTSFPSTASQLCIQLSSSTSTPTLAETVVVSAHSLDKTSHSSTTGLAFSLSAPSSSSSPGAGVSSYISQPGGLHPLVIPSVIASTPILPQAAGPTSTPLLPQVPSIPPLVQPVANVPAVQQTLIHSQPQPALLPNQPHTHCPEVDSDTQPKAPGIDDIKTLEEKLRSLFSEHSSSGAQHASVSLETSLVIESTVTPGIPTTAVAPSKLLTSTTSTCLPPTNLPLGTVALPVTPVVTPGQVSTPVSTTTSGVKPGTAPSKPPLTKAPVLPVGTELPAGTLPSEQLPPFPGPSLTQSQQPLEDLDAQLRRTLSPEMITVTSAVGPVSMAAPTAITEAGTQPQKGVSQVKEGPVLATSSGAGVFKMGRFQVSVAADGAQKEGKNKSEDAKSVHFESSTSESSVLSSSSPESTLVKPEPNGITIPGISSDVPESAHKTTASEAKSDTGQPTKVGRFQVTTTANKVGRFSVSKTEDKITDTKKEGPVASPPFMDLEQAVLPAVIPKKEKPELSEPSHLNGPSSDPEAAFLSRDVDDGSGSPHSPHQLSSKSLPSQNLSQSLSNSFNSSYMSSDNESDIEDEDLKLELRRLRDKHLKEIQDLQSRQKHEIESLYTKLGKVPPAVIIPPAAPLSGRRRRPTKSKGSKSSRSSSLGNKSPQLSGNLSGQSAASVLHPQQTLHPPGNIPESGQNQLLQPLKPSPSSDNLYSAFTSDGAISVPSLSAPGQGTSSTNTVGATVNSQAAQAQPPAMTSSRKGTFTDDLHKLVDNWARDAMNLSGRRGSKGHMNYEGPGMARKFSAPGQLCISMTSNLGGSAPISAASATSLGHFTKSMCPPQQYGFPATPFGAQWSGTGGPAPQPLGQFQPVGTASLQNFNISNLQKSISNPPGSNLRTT
T2 sequence (Q13153 whole entry, the tested form may be a part): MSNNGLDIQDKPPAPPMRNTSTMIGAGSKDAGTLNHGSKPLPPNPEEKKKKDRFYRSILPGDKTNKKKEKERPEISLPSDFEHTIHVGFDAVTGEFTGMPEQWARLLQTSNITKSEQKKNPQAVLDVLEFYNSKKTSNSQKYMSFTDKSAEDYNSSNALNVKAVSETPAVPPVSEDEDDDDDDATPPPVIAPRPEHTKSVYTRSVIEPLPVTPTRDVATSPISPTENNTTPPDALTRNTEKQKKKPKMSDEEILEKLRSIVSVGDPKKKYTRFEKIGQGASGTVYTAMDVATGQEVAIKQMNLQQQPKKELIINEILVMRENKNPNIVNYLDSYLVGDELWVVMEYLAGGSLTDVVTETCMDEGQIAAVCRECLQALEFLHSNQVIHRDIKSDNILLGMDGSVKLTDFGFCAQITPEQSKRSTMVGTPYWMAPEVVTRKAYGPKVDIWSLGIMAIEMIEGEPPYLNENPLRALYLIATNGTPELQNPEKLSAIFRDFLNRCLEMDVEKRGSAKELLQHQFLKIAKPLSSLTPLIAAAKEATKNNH
T9 sequence (Q9P289 whole entry, the tested form may be a part): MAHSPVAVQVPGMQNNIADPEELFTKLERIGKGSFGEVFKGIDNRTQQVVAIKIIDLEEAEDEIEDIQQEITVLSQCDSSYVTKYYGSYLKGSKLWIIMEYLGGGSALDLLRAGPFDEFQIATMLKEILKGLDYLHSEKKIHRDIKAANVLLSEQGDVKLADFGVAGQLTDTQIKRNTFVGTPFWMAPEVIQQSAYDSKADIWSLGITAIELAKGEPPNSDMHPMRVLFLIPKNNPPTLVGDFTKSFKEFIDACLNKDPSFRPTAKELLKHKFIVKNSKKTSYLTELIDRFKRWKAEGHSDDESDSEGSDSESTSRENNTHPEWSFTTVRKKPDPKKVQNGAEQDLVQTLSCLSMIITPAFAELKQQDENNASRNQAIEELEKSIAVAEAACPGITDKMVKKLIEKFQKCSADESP
T8 sequence (P45983 whole entry, the tested form may be a part): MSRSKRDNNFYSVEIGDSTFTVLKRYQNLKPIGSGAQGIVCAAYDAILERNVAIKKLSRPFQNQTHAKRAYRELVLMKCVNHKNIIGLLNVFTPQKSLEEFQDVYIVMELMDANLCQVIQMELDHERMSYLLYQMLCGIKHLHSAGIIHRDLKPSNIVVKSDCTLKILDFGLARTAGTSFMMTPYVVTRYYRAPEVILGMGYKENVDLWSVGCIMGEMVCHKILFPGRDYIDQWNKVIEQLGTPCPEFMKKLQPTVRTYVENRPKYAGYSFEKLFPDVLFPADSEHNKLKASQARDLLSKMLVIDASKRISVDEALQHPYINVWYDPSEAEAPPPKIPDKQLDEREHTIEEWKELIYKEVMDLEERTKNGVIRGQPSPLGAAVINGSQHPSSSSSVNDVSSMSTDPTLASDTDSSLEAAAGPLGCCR
T5 sequence (Q8IU85 whole entry, the tested form may be a part): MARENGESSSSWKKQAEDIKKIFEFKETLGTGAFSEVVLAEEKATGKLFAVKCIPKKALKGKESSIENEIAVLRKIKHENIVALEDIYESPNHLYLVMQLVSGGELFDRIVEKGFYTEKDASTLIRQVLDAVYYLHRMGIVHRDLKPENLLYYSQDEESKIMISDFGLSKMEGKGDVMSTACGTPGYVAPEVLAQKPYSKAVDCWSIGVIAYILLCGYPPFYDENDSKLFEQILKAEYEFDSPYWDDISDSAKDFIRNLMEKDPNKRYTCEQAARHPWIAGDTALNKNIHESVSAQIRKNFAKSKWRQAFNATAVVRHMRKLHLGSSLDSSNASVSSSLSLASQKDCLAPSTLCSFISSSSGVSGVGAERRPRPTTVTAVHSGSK

For the compound `CCc1ccc(NC(=O)C2(C(=O)Nc3cccc(-c4c[nH]c5ncnc(N6CCOCC6)c45)c3)CC2)cc1` [Compound 15], the dTm in assay [1] is 0.19 K; in assay [2], 1.40 K; in assay [3] it was 8.42 K; in [4], 8.81 K; in assay [5], -1.11 K; in [6] it was 0.36 K. In addition, the dTm is 0.33 K in assay [7], 1.56 K in assay [8], 2.78 K in assay [9] and 1.18 K in assay [10].

Turning to `COc1ccc(NC(=O)C2(C(=O)Nc3cccc(-c4c[nH]c5ncnc(N6CCOCC6)c45)c3)CC2)cc1` [Compound 16], the dTm is 0.34 K in assay [1]; 0.47 K in assay [2]; 5.34 K in [3]; 5.41 K in [4]; -1.41 K in assay [5]; -0.16 K in assay [6]. Further, the dTm in [7] is -0.0251 K; in assay [8] it was 0.26 K; in [9], 1.30 K; in assay [10] it was -0.15 K.

With `O=C(Nc1cccc(-c2c[nH]c3ncnc(N4CCOCC4)c23)c1)C1(C(=O)Nc2ccc(F)c(F)c2)CC1` [Compound 17], the dTm is listed as 0.29 K in assay [1]; 3.52 K in [2]; 7.68 K in [3]; 9.50 K in [4]; -0.44 K in [5]; 0.53 K in [6]. The dTm in [7] turned out to be 0.57 K; in [8], 2.52 K; in [9] it was 6.01 K; in assay [10] it was 1.80 K.

Turning to `O=C(Nc1cccc(-c2c[nH]c3ncnc(N4CCOCC4)c23)c1)C1(C(=O)Nc2ccc(F)c(Cl)c2)CC1` [Compound 18], the dTm in assay [1] is -0.32 K; in [2], 5.39 K; in [3], 8.55 K; in assay [4] it was 12.04 K; in [5], 1.04 K; in assay [6], 1.31 K. The dTm in [7] is 1.16 K; in [8], 3.23 K; in assay [9], 6.98 K; in assay [10], 2.24 K.

Consider `O=C(Nc1cccc(-c2c[nH]c3ncnc(N4CCOCC4)c23)c1)C1(C(=O)Nc2ccc(F)c(Br)c2)CC1` [Compound 19], for which the dTm is -0.89 K in assay [1]; 5.56 K in assay [2]; 7.71 K in [3]; 11.96 K in assay [4]; 3.06 K in assay [5]; 3.30 K in assay [6]. Moreover, the dTm in [7] came to 0.64 K; in [8], 3.53 K; in assay [9], 6.31 K; in assay [10] it was 1.45 K.

On to `Cc1cc(NC(=O)C2(C(=O)Nc3cccc(-c4c[nH]c5ncnc(N6CCOCC6)c45)c3)CC2)ccc1F` [Compound 20], for which the dTm was -0.05 K in assay [1]; 6.40 K in [2]; 10.06 K in assay [3]; 13.05 K in [4]; 0.0569 K in assay [5]; 1.97 K in assay [6]. In addition, the dTm in assay [7] is 0.02 K; in assay [8], 3.09 K; in assay [9] it was 7.93 K; in assay [10] it was 3.28 K.

Consider `COc1cc(NC(=O)C2(C(=O)Nc3cccc(-c4c[nH]c5ncnc(N6CCOCC6)c45)c3)CC2)ccc1F` [Compound 21], for which the dTm is listed as -0.0539 K in assay [1]; 4.31 K in [2]; 8.44 K in assay [3]; 11.57 K in assay [4]; -0.74 K in assay [5]; 0.76 K in assay [6]. For the same compound, the dTm in assay [7] was -0.19 K; in assay [8] it was 1.81 K; in assay [9], 6.10 K; in assay [10], 1.92 K.

`CC(C)(C)c1cccc(NC(=O)C2(C(=O)Nc3cccc(-c4c[nH]c5ncnc(N6CCOCC6)c45)c3)CC2)c1` [Compound 22]: the dTm in [1] was -1.56 K; in [2] it was 3.87 K; in assay [3], 9.61 K; in assay [4], 6.63 K; in assay [5], 3.02 K; in [6] it was 0.60 K. In addition, the dTm is on record as -1.93 K in [7], 3.75 K in [8], 4.41 K in assay [9] and 3.92 K in assay [10].

Take `O=C(Nc1cccc(-c2c[nH]c3ncnc(N4CCOCC4)c23)c1)C1(C(=O)Nc2ccc(F)cc2F)CC1` [Compound 23]: the dTm in assay [1] is -0.14 K; in assay [2], 1.05 K; in assay [3], 6.69 K; in assay [4], 7.48 K; in assay [5], -1.25 K; in assay [6], -0.38 K. Further, the dTm in assay [7] was -0.34 K; in assay [8], 1.59 K; in assay [9] it was 3.92 K; in assay [10], 1.14 K.

On to `Cc1cc(F)ccc1NC(=O)C1(C(=O)Nc2cccc(-c3c[nH]c4ncnc(N5CCOCC5)c34)c2)CC1` [Compound 24], for which the dTm is reported as -0.14 K in [1]; 2.36 K in assay [2]; 6.63 K in [3]; 6.95 K in assay [4]; -2.03 K in [5]; -0.59 K in assay [6]. The dTm in assay [7] is given as -0.0334 K; in assay [8], 2.35 K; in assay [9], 2.44 K; in [10], 0.71 K.
